Assay results taken from patent US6919342B2, “Triazole compounds suitable for treating disorders that respond to modulation of the dopamine D3 receptor” (Abbott GmbH & Co. KG, priority 2003, dated 2005).

Assays:
[1] = molecular target: T1, human dopamine D3 receptors (Homo sapiens, UniProt P35462); assay: Dopamine D3 receptor binding, displacement of [125I]-iodosulpride; conditions: for Ki: membranes of HEK-293 cells, 0.1 nM [125I]-iodosulpride, 25° C., 60 minutes; for Selectivity [Ki(D2)/Ki(D3)]: ratio of Ki D2 to Ki D3
T1 construct: expressed in transfected cells; host or cells: HEK-293
Method: (§1) The substance to be tested was either dissolved in methanol/Chremophor® (BASF-AG) or in dimethyl sulfoxide and then diluted with water to the desired concentration.
(§2) Each assay mixture was run in triplicate.
The incubation buffer contained 50 mM tris, 120 mM NaCl, 5 mM KCl, 2 mM CaCl2, 2 mM MgCl2 and 0.1% bovine serum albumin, 10 μM quinolone and 0.1% ascorbic acid (prepared fresh daily). The buffer was adjusted to pH 7.4 with HCl.
(§3) After having been incubated at 25° C. for 60 minutes, the assay mixtures were filtered through a Wathman GF/B glass fiber filter under vacuum using a cell collecting device. The filters were transferred to scintillation viols using a filter transfer system. After 4 ml of Ultima Gold® (Packard) have been added, the samples were shaken for one hour and the radioactivity was then counted in a Beta-Counter (Packard, Tricarb 2000 or 2200CA). The cpm values were converted into dpm using a standard quench series and the program belonging to the instrument.
(§4) The inhibition curves were analyzed by means of iterative nonlinear regression analysis using the Statistical Analysis System (SAS) which is similar to the “LIGAND” program described by Munson and Rodbard.

[2] = molecular target: T2, human dopamine D2L receptors (long isoform) (Homo sapiens, UniProt P14416); assay: Dopamine D2L receptor binding, displacement of [125I] iodospiperone; conditions: membranes of HEK-293 cells, 0.01 nM [125I] iodospiperone, 25° C., 60 minutes; read-out: Ki D2
T2 construct: expressed in transfected cells; host or cells: HEK-293
Method: as §1, §2
The incubation buffer contained 50 mM tris, 120 mM NaCl, 5 mM KCl, 2 mM CaCl2, 2 mM MgCl2 and 0.1% bovine serum albumin. The buffer was adjusted to pH 7.4 with HCl.
as §3, §4

T1 sequence (P35462 whole entry): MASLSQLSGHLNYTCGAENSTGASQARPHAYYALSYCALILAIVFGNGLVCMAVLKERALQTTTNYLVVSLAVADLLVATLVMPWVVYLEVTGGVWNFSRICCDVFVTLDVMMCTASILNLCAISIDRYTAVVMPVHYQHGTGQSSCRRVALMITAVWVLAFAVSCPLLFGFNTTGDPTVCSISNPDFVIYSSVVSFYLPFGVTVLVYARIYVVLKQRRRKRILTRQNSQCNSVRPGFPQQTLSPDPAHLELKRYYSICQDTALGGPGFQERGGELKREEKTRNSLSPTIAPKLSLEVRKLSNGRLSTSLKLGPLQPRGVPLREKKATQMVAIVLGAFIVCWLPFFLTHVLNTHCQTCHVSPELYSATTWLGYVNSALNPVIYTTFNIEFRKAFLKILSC
T2 sequence (P14416 whole entry, canonical isoform): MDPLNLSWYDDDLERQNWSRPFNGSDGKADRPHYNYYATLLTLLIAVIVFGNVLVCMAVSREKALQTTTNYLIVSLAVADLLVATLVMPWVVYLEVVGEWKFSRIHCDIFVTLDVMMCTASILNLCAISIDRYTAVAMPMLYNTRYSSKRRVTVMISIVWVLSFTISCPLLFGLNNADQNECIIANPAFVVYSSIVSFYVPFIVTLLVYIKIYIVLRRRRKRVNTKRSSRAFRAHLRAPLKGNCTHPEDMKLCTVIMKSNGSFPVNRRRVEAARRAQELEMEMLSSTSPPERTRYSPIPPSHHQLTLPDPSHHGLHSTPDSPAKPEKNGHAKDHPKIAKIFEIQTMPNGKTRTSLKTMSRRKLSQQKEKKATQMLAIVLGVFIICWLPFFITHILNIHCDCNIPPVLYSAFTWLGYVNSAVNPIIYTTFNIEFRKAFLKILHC

| melting point | SMILES | Ki [1] | Selectivity [Ki(D2)/Ki(D3)] [1] | Ki [2] |
| --- | --- | --- | --- | --- |
| – | Cn1c(N)nnc1SCCCN1CCN(c2cc(C(F)(F)F)nc(C(C)(C)C)n2)CC1 [B] | 3.9 nM | 31 | 119 nM |
| – | Cn1c(N)nnc1SCCCN1CCN(c2cc(C(C)(C)C)nc(C(C)(C)C)n2)CC1 [A] | 0.7 nM | 19 | 12 nM |
| 92 to 95 °C | Cl.Cn1cnnc1SCCCN1CCN(c2cc(C(F)(F)F)nc(C(C)(C)C)n2)CC1 [Example 6, 2-tert-Butyl-4-{4-[3-(4-methyl-4H-[1,2,4]triazol-3-ylsulfanyl)-propyl]-piperazin-1-yl}-6-trifluoromethyl-pyrimidine hydrochloride] | – | – | – |
